The source of these data is patent publication US20260159810A1, “MEDIUM COMPOSITION FOR INDUCING DIFFERENTIATION FROM STEM CELLS TO MACROPHAGES AND DIFFERENTIATION METHOD USING SAME” (SUNGKWANG MEDICAL FOUNDATION, priority 2022, published 2026).

One experiment deals with mouse thymus cells. As to the kind of experiment: Measurement of phagocytosis: differentiated macrophages co-cultured with fluorescently stained target cells. The format is cell-based. The settings on record: various E:T ratios; cells positive for both CD11b and target-cell fluorescence; FIG. 7. The method, then: Phagocytosis of macrophages obtained from Example 1 and Comparative Example 1 was confirmed. Specifically, macrophages (effectors) obtained from Example 1 and Comparative Example 1 were co-cultured with mouse thymus cells (targets, fluorescently stained) at various E:T (effector:target) ratios. After co-culture, cells were collected and phagocytosis of macrophages was measured by measuring cells that simultaneously expressed macrophage-specific markers (CD11b) and fluorescence that had been stained on target cells.

Experiment [1] concerns macrophage-specific markers (MHC 1, MHC 2, CD11b, CD86, CX3CR1, CD16) in hPSC-derived floating cells. As to the kind of experiment: Identification of macrophage-specific markers by FACS. The format is cell-based, human. The settings on record: medium supplemented with fasudil during differentiation to macrophages. The procedure:
The expression pattern of markers specific to macrophages in the cells obtained in Example 1, Comparative Example 1, and Comparative Example 2 was investigated. Specifically, confirmation was performed using fluorescence-activated cell sorting (FACS, BD FACSCalibur™). Results of cells expressing CD11b, a surface marker of macrophages, and CD86, which is expressed in antigen presenting cells, confirmed through FACS are shown in FIG. 5. Results of cells expressing CX3CR1, which regulates macrophage function in inflammatory sites, and CD16, which is associated with antibody-dependent cell-mediated cytotoxicity (ADCC), confirmed through FACS are shown in FIG. 6.
A general note: Flow cytometry measures light scatter and fluorescence of single cells or particles in a stream.

For `O=S(=O)(c1cccc2cnccc12)N1CCCNCC1` [fasudil], the phagocytosis of macrophages result in the experiment with mouse thymus cells is given as “increased”. The “expression of macrophage-specific markers” value in experiment [1] was “increased”.
